Laboratory results reported in US6905834B1, “Bioluminescent bioreporter integrated circuit detection methods” (UT-Battelle, LLC, priority 1997, dated 2005).
Like-named read-outs stand apart in the source and are kept apart here.

Experiments:
[1] = system: P. fluorescens HK44; assay type: cell-based, Pseudomonas fluorescens
Excerpt: A previously developed PBR system with on-line instrumentation (Webb, 1992; Webb et al., 1991) was used to measure bacterial degradative and bioluminescent activity under conditions mimicking those of the subsurface. The reactor design is detailed in FIG. 21. The PBR was temperature controlled and fitted with metal frits welded to the inlet and outlet to retain and distribute feed to immobilized cultures. An additional inter-cavity insert allowed the installation of filters (e.g., […] inorganic and polymeric) between the packed bed and outlet frit that filtered the effluent for automatic injection into the on-line high-performance liquid chromatography (HPLC) and that produced a uniform resistance to flow that improved the overall distribution to the reactor (Webb, 1992). […] HPLC pumps supplied media to each reactor from pressurized feed reservoirs. All nutrients, including oxygen, entered the reactor dissolved in the liquid phase. Naphthalene and salicylate were detected with an on-line HPLC using a Vydac TP20154 column (Sep/A/Ra/Tions Group, Hesperia, Calif.) with a FL-4 dual-monochromator fluorescent detector (Perkin-Elmer, Norwalk, Conn.). Respective excitation and emission wavelengths for salicylate detection were 290 and 360 nm. The reactor was fitted with an on-line light detector for monitoring bioluminescent activity (Dunbar, 1992) consisting of a glued fiber bundle (Ensign Bickford Optics, Simsbury, Conn.) placed approximately 2.5 cm from the entrance of the reactor. An Oriel Inc. (Stratford, Conn.) 7070 photomultiplier detection system using a Model 77348 photomultiplier tube (radiant sensitivity of […] near 500 nm) were employed.
Mineral salts media (pH 7.2) consisting of MgSO4 7H2O ([…]), NH4NO3 ([…]), trizma™ base ([…]), MgO (1.0×10^−3 g/l), CaCl2 (2.9×10^−4 g/l), FeCl3.6H2O (5.4×10^−4 g/l), ZnSO4.7H2O (1.4×10^−4 g/l), CuSO4 (2.5×10^−5 g/l), […] (6.2×10^−6 g/l), and Na2MoO4.H2O (4.9×10^−5 g/l) were supplied to the reactor with an appropriate carbon source for degradation and bioluminescence studies. Kinetic bacterial studies were phosphate limited and maintained aerobic by con-trolled pressurization of feeds and the reactor.
The HK44 was prepared for immobilization by adding freshly thawed inoculum (frozen at −70° C. until use) to 100 mL of YEPG media which contained glucose (1.0 g/l), polypeptone (2.0 g/l), yeast extract (0.2 g/l), NH4NO3 (0.2 g/l), and tetracycline (14 mg/l). The culture was shaken for 15 hours at 25° C. and then centrifuged at 8000 rpm for 10 minutes. The pellet was then washed with 0.9% NaCl solution three times before immobilization. The concentration of HK44 was enumerated by measuring optical density at 546 nm. The HK44 was immobilized by suspending bacteria in 0.9% NaCl solution and mixing with a low-viscosity alginate (28 g/L) and NaCl (9 g/L) solution in a ratio of 1:2 by volume. Beads were formed by controlled dropwise addition to 0.1 M CaCl2 solution by a syringe needle installed in an air jet controlled by a precision regulator (Porter Instrument Co., Hatfield, Pa.) and a piece of 0.003-in. (i.d.) tubing. Beads diameters were measured using gentle wet sieving. Alginate beads were dissolved in 50 mM sodium hexametaphosphate. […]

[2] = Adsorption isotherms on calcium alginate; assay type: physicochemical
Description: Tracer concentrations were measured using a Waters ion-chromatography system with a series 510 HPLC pump, IC-PAK anion exchange column, and 431 conductance detector (Waters, Cam-bridge, MA) or monitored continuously using fluorescence.

O=C([O-])c1ccccc1O.[Na+] [Sodium salicylate, sodium salicylate]
least-squares reaction rate constant, overall second order model ([1]; complete data set, figure legends): 2.23×10^−2 dm^3/g mol | Salicylate effluent ± σ ([1]; experiment 1a, biomass 3.3 × 10^9 cells/mL, feed 2.25 mg/L, τ 14 min): 1.43 ± 2.85 × 10^−2 mg/L | Salicylate effluent ± σ ([1]; experiment 1b, biomass 3.3 × 10^9 cells/mL, feed 2.25 mg/L, τ 58 min): 0.46 ± 0.84 × 10^−2 mg/L | Salicylate effluent ± σ ([1]; experiment 1c, biomass 3.3 × 10^9 cells/mL, feed 2.25 mg/L, τ 14 min): 1.65 ± 4.77 × 10^−2 mg/L | Salicylate effluent ± σ ([1]; experiment 2a, biomass 3.5 × 10^9 cells/mL, feed 2.47 mg/L, τ 24 min): 1.03 ± 2.83 × 10^−2 mg/L | Salicylate effluent ± σ ([1]; experiment 2b, biomass 3.5 × 10^9 cells/mL, feed 2.47 mg/L, τ 26 min): 0.86 ± 0.93 × 10^−2 mg/L | Salicylate effluent ± σ ([1]; experiment 2c, biomass 3.5 × 10^9 cells/mL, feed 2.47 mg/L, τ 94 min): 0.20 + 0.28 × 10^−2 mg/L | Salicylate effluent ± σ ([1]; experiment 3a, biomass […] 10^9 cells/mL, feed 4.45 mg/L, τ 15 min): 4.06 ± 8.85 × 10^−2 mg/L | Salicylate effluent ± σ ([1]; experiment 3b, biomass […] 10^9 cells/mL, feed 4.45 mg/L, τ 18 min): 3.84 ± 6.99 × 10^−2 mg/L | Salicylate effluent ± σ ([1]; experiment 3c, biomass […] 10^9 cells/mL, feed 4.45 mg/L, τ 24 min): 3.42 ± 8.55 × 10^−2 mg/L | Salicylate effluent ± σ ([1]; experiment 3f, biomass […] 10^9 cells/mL, feed 4.45 mg/L, τ 24 min): 3.12 ± 4.09 × 10^−2 mg/L | Salicylate effluent ± σ ([1]; experiment 4b, biomass […] 10^9 cells/mL, feed 4.45 mg/L, τ 36 min): 2.76 ± 3.95 × 10^−2 mg/L | Salicylate effluent ± σ ([1]; experiment 4c, biomass […] 10^9 cells/mL, feed 4.45 mg/L, τ 48 min): 2.25 ± 3.47 × 10^−2 mg/L | Salicylate effluent ± σ ([1]; experiment 4e, biomass […] 10^9 cells/mL, feed 4.45 mg/L, τ 150 min): 0.89 ± 1.54 × 10^−2 mg/L | Salicylate effluent ± σ ([1]; experiment 4f, biomass […] 10^9 cells/mL, feed 4.45 mg/L, τ 48 min): 2.24 + 3.49 × 10^−2 mg/L | Salicylate effluent ± σ ([1]; experiment 3d, biomass […] 10^9 cells/mL, feed 4.45 mg/L, τ 36 min): 2.77 + 4.24 × 10^−2 mg/L | Salicylate effluent ± σ ([1]; experiment 4d, biomass […] 10^9 cells/mL, feed 4.45 mg/L, τ 72 min): 1.75 ± 2.03 × 10^−2 mg/L | salicylate degradation rate constant (first order in biomass, first order in salicylate) ([1]; fitted to subset 1a-c): 1.88×10^−2 dm^3 g^−1 min^−1 | salicylate degradation rate constant (first order in biomass, first order in salicylate) ([1]; fitted to subset 2a-c): 2.85×10^−2 dm^3 g^−1 min^−1 | salicylate degradation rate constant (first order in biomass, first order in salicylate) ([1]; fitted to subset 3a-f): 2.06×10^−2 dm^3 g^−1 min^−1 | salicylate degradation rate constant (first order in biomass, first order in salicylate) ([1]; fitted to subset 4a-f): 2.28×10^−2 dm^3 g^−1 min^−1 | salicylate degradation rate constant (first order in biomass, first order in salicylate) ([1]; fitted to the complete set): 2.23×10^−2 dm^3 g^−1 min^−1 | slope of best-fit line, specific light response vs predicted salicylate concentration at the light probe ([1]; studies 2a-c): 1.4 | slope of best-fit line, specific light response vs predicted salicylate concentration at the light probe ([1]; studies 3c-e): 2.3 | slope of best-fit line, specific light response vs predicted salicylate concentration at the light probe ([1]; studies 4c-f): 1.5 | conversion ([1]; study 1a): 0.64 | conversion ([1]; study 1c): 0.73 | conversion ([1]; study 3c): 0.77 | conversion ([1]; study 3e): 0.41 | conversion ([1]; study 3f): 0.70 | conversion ([1]; study 4b): 0.62 | conversion ([1]; study 4c): 0.50 | conversion ([1]; study 4f): 0.50 | conversion ([1]; study 3d): 0.62 | conversion ([1]; study 4d): 0.39 | adsorption on calcium alginate (in words) ([2]; listed as Salicylate): did not measurably absorb | adsorption on calcium alginate (in words) ([2]; listed as salicylate): did not appreciably partition
